Measurements as given in patent US20130040935A1, “CYCLIC KETO-ENOLS FOR THERAPY” (BAYER INTELLECTUAL PROPERTY GMBH, priority 2010, published 2013).
Where two headings read alike, the source gives them in different places.

Legend:
[1] = target: T1, human ACC1 (acetyl-coenzyme A carboxylase alpha transcript variant 1) (Homo sapiens, UniProt Q13085); experiment: Human ACC1 enzyme assay, Assay B1 (ADP-Glo); type: biochemical
T1 construct: FLAG (C); made in house; host or cells: baculovirus-infected insect cells (Hi5)

MCF7 = experiment: Cell proliferation assay (CellTiter-Glo, 96 h), MCF7; type: cell-based; conditions: Homo sapiens
Experimental: In accordance with the invention, the substances were tested in cell-based assays for the ability of the substances of inhibiting tumour cell proliferation after a 96-hour incubation with the substance. Cell viability was tested using the CellTiter-Glo® luminescent cell viability assay (Promega). The cells were sown at a density of 2000-5000 cells/well (depending on the cell line) in 100 μl growth medium on 96-well microtitre plates. For each cell line examined, cells were sown on a separate plate to determine the luminescence at t=0 hours and t=96 hours. After overnight incubation at 37° C., the luminescence values for the t=0 samples were determined. The dose plates for the t=96 hours points in time were treated with substances diluted with growth medium. The cells were then incubated at 37° C. for 96 hours, and the luminescence values for the t=96 hours sample were then determined. For data analysis, the t=0 values were subtracted from the t=96 hour values for treated and untreated samples. The differences in luminescence in percent between substance-treated samples and control values were used to determine the growth inhibition in percent.
The substances were tested in the following cell lines which represent the stated indications in an exemplary manner: […]

[2] = target: human ACC2 (acetyl-coenzyme A carboxylase 2) (Homo sapiens, UniProt O00763); experiment: Human ACC2 enzyme assay, Assay B2 (ADP-Glo);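 further: human ACC2 activity read as ADP product, detected by luciferase glow luminescence after residual ATP removal, enzyme near 2 ng/µl in linear range, detection steps at 22 °C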
Experimental: The hACC2-inhibitory action of the substances of the present invention was measured in the hACC2 assay described in the paragraphs below.
Essentially, the enzyme activity is measured by quantifying the adenosine diphosphate (ADP) formed as a byproduct of the enzyme reactions using the ADP-Glo™ detection system from Promega. In this test, initially the adenosine triphosphate (ATP) not consumed in the enzyme reaction is converted quantitatively with an adenylate cyclase (“ADP-GLO reagent”) into cAMP, the adenylate cyclase is then stopped and (“kinase detection reagent”) the ADP formed is subsequently converted into ATP, which is converted in a luciferase-based reaction into a glow luminescence signal.
The concentration of the hACC2 was adapted to the respective activity of the enzyme and adjusted such that the assay operated in the linear range. Typical concentrations were in the range of 2 ng/μl. […] The amount of light emitted was taken as a measure for the amount of ADP formed and thus for the enzyme activity of the hACC2.

[3] = Assay B1, read-out: ACC 1 (=B1) IC50
[4] = MCF7, Table 7, 96-hour incubation
[5] = MCF7, Table 9a, 96-hour incubation
[6] = Assay B1, ADP-Glo, read-out: ACC 1 (=B1) IC50

Sequence of human ACC2 (acetyl-coenzyme A carboxylase 2) (O00763 27-2458 limits assumed): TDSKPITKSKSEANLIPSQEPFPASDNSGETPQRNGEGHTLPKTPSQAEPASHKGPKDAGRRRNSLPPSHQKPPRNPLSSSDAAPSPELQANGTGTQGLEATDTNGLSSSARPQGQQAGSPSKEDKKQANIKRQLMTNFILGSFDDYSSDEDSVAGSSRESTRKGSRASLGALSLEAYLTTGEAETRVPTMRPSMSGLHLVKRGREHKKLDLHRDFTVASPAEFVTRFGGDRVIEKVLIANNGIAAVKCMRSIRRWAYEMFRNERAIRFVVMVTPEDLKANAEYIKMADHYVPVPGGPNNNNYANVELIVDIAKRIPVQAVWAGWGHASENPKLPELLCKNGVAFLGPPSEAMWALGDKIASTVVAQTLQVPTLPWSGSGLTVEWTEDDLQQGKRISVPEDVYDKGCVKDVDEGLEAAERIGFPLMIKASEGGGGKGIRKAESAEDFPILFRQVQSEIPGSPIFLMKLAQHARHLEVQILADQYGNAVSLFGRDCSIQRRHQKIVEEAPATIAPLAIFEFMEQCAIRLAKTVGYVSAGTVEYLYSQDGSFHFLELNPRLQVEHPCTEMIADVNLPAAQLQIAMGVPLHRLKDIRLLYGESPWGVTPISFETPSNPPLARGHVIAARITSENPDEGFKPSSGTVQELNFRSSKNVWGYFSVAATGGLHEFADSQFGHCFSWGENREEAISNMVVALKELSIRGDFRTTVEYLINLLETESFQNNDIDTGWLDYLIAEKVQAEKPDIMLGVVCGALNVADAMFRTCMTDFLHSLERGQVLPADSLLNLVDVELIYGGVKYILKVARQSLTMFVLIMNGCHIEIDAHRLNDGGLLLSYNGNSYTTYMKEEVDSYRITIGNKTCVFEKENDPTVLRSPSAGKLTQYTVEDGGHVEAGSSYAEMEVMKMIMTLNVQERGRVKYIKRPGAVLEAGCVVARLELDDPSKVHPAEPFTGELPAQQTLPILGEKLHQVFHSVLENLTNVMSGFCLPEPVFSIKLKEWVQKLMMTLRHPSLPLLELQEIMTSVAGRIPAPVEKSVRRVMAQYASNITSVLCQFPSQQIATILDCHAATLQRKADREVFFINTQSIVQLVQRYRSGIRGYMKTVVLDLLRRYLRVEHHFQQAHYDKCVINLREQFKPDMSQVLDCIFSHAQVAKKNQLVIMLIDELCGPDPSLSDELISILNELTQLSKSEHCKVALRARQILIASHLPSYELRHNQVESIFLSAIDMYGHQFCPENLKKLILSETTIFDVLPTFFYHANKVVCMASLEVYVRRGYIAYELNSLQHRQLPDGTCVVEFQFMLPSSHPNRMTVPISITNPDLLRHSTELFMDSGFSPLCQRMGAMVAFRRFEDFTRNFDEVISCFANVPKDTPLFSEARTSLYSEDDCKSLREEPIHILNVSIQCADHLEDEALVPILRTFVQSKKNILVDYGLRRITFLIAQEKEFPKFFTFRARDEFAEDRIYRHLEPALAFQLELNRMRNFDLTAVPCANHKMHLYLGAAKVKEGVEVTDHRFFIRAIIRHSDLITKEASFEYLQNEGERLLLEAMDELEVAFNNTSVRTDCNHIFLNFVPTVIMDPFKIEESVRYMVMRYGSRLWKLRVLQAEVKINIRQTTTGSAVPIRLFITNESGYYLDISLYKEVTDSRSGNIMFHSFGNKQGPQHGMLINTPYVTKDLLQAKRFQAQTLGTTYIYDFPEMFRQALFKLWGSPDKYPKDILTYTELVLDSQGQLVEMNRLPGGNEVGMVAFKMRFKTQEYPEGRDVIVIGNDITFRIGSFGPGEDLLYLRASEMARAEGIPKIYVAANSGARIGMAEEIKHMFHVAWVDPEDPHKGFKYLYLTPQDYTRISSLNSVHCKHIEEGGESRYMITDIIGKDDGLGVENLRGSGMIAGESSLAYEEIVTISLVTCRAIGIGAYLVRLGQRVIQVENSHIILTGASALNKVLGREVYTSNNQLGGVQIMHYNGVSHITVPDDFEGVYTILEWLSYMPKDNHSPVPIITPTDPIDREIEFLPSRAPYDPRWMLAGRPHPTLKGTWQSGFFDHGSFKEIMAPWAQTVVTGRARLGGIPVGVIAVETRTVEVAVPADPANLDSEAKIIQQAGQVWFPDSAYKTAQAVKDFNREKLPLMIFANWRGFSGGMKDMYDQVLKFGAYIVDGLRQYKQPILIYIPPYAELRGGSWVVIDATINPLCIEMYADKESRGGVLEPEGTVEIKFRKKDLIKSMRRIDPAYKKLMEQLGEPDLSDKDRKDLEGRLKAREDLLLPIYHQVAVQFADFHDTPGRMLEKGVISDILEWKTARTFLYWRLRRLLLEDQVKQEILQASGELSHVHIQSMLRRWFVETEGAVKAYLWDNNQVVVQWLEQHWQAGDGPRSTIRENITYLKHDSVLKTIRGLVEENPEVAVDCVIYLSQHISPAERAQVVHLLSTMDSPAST

SMILES	IC50 [1, 3] [µM]	IC50 (MCF7; [4]) [µM]	IC50 [2] [µM]	IC50 [1] [µM]	IC50 (MCF7; [5]) [µM]	IC50 [1, 6] [µM]	IC50 (MCF7; MCF7 cells) [µM]
Cc1ccc(-c2ccc(Cl)cc2)cc1C1=C(O)[C@@]2(CC[C@H](OCC(C)C)C2)NC1=O (relative stereo) [1-49, rel-(5R,7R)-3-(4′-chloro-4-methylbiphenyl-3-yl)-4-hydroxy-7-(2-methylpropoxy)-1-azaspiro[4.4]non-3-en-2-one]	10.6	0.64	> 20				
COCCC1CCC2(CC1)NC(=O)C(c1c(C)ccc(-c3ccc(Cl)cc3)c1C)=C2O (stereo not drawn) [1-57, 3-(4′-chloro-2,4-dimethylbiphenyl-3-yl)-4-hydroxy-8-(2-methoxyethyl)-1-azaspiro[4.5]dec-3-en-2-one]		0.25	1.68	1.29			
Cc1cc(C)c(-c2ccc(Cl)cc2)cc1C1=C(O)CC(C)(C)CC1=O [7-3, 2-(4′-chloro-4,6-dimethylbiphenyl-3-yl)-3-hydroxy-5,5-dimethylcyclohex-2-en-1-one]	1.74		13		0.974		
Cc1cc(C)c(-c2ccc(Cl)cc2)c(C)c1C1=C(O)C2(CCCCCC2)OC1=O [2-48, 3-(4′-chloro-2,4,6-trimethylbiphenyl-3-yl)-4-hydroxy-1-oxaspiro[4.6]undec-3-en-2-one]			0.417			1.54	0.762
CCC1CCC2(CC1)CC(=O)C(c1cc(-c3ccc(Cl)cc3)ccc1C)=C2O (stereo not drawn) [6-5, 3-(4′-chloro-4-methylbiphenyl-3-yl)-8-ethyl-4-hydroxyspiro[4.5]dec-3-en-2-one]	0.523		1.21		0.605		
Cc1ccc(-c2ccc(Cl)cc2)cc1C1=C(O)C2(CCCCCC2)CC1=O [6-7, 3-(4′-chloro-4-methylbiphenyl-3-yl)-4-hydroxyspiro[4.6]undec-3-en-2-one]	1.03		7.19		0.338		
Cc1cc(C)c(-c2ccc(Cl)cc2)c(C)c1C1=C(O)[C@]2(CC[C@@]3(CCCO3)CC2)OC1=O [2-31, (5r,8s)-3-(4′-chloro-2,4,6-trimethylbiphenyl-3-yl)-4-hydroxy-1,9-dioxadispiro[4.2.4.2]tetradec-3-en-2-one]			0.076	2			0.49
Cc1cc(C)c(-c2ccc(Cl)cc2)cc1C1=C(O)C2(CCCCCC2)OC1=O [2-43, 3-(4′-chloro-4,6-dimethylbiphenyl-3-yl)-4-hydroxy-1-oxaspiro[4.6]undec-3-en-2-one]			0.737	0.168			0.263
Cc1ccc(-c2ccc(Cl)cc2)cc1C1=C(O)C(C)(C)OC1=O [2-3, 3-(4′-chloro-4-methylbiphenyl-3-yl)-4-hydroxy-5,5-dimethylfuran-2(5H)-one]			> 20	3.73			1.06
Cc1ccc(-c2ccc(F)cc2)cc1C1=C(O)[C@]2(CC[C@@]3(CCCO3)CC2)OC1=O [2-28, (5r,8s)-3-(4′-fluoro-4-methylbiphenyl-3-yl)-4-hydroxy-1,9-dioxadispiro[4.2.4.2]tetradec-3-en-2-one]			4.6			0.128	0.296
COCC1CCCC2(C1)NC(=O)C(c1cc(-c3ccc(Cl)cc3)ccc1C)=C2O (stereo not drawn) [1-51, 3-(4′-chloro-4-methylbiphenyl-3-yl)-4-hydroxy-7-(methoxymethyl)-1-azaspiro[4.5]dec-3-en-2-one]		0.253	5.45	0.415			
Cc1ccc(-c2ccc(Cl)c(Cl)c2)cc1-c1c(O)c2ccc(Cl)cc2[nH]c1=O [9-7, 7-chloro-3-(3′,4′-dichloro-4-methyl-biphenyl-3-yl)-4-hydroxyquinolin-2(1H)-one]	0.308		11.2				1.1
Cc1cc(C)c(-c2ccc(Cl)cc2)c(C)c1C1=C(O)C2(CCCCC2)OC1=O [2-6, 3-(4′-chloro-2,4,6-trimethylbiphenyl-3-yl)-4-hydroxy-1-oxaspiro[4.5]dec-3-en-2-one]			5.42			6.85	0.724
